Columns and labels:
AHCY enzyme = AHCY enzyme (UniProt P23526); assay: In vitro AHCY activity assay (ThioGlo1 fluorescence); type: biochemical; conditions: recombinant expressed human or mouse AHCY enzyme; SAH substrate; ThioGlo1 readout
Experimental: In vitro AHCY Activity Assay
The AHCY activity of the compounds of the invention can be measured by the following in vitro assay.
The AHCY enzyme assay is based on the principle of fluorescence emission following incubation of a reactive dye with the products of an AHCY catalyzed reaction. The reactive dye (Thioglo1) binds homocysteine through its thiol-containing moiety. The products of the AHCY catalyzed reaction, adenosine and homocysteine, are produced from the hydrolysis of SAH (s-adenosylhomocysteine) through AHCY's hydrolase activity.
The reaction is optimized in 96-, 384-, 1536- and 3456-assay plate formats with recombinant expressed human or mouse AHCY enzyme. When run under initial velocity conditions, the assay is suitable for IC50 and % inhibition calculations.
• 1) ThioGlo1 (catalog 595501, Calbiochem); 100 mM in DMSO • 2) SAH (catalog A-9384, Sigma); 4.69 mM with 0.06 N HCl • 3) Aristeromycin (catalog A-0928, Sigma); 100 mM in DMSO • 4) NAD (catalog 43410, Sigma); 14.5 mM in water • 5) EDTA in 500 mM pH 8 (catalog BP2482-100, Fisher) • 6) DTT stock 200 mM in water • 7) AHCY enzyme (diluted with 100 mM tris pH7.5) Dilutions immediately prior to use: • 1. SAH 750 μM (10×) (dilute with 100 mM Iris pH 7.5) • 2. Aristeromycin (10×) (dilute to 1 mM with 100 mM Tris pH7.5) • 3. ThioGlo1 (10×) (dilute to 100 μM in Tris pH7.5) • 4. […] Read plate (Ex 380 Em 510)

[1] = system: AHCY in HEK293 and/or SH-SY5Y cells; assay: Cell-based assay of AHCY inhibition (secreted homocysteine); conditions: secreted homocysteine from Hek293 or SH-SY5Y cells, 72 hrs compound treatment
Excerpt: Cell-Based Assay of AHCY Inhibition
The AHCY activity of the compounds of the invention can be measured by the following cell-based assay.
Post treatment collection of the adherent Hek293 and/or SH-SY5Y cells is also made for a viability and proliferation measure. Since the amount of secreted homocysteine is limited by the amount of SAH that is converted to homocysteine in the cells and its subsequent secretion, an EC50 measure and % inhibition relative to DMSO control cells can be made. Since the amount of secreted metabolites such as homocysteine can also be related to the absolute and cellular viability, an MTT (3-(4,5-Dimethylthiazol-2-yl)-2,5-diphenyltetrazolium bromide) measure of proliferation and relative cytotoxicty (as compared to control conditions) may also be made.
• 1. The day before compound treatment, plate 20,000 cells (Hek293 or SH-SY5Y) in 96 well cell culture treated plates in 100 μl of cell culture media (DMEM and 10% fetal bovine serum). • 2. Add fresh media plus compound (and DMSO treated controls) for 72 hrs. • 3. Collect conditioned media for measurement of secreted homocysteine and perform viability/proliferation assay on adherent cells. Measure of Secreted Homocysteine: • 1. […]
a. […] Detection: Fluorescence: Excitation 385 nm, Emission 515 nm • v. […]
b. […] absorbance at 550 nm and 690 nM. • 6. Express readout as 550 nM-690 nM.

IC50 (AHCY enzyme) | SMILES | IC50 [1]
4 nM | Nc1nccn2c([C@@H]3C=C(CO)[C@@H](O)[C@H]3O)cnc12 [Example 1, (1S,2R,5S)-5-(8-aminoimidazo[1,2-a]pyrazin-3-yl)-3-(hydroxymethyl)cyclopent-3-ene-1,2-diol] | 4 nM
692 nM | Nc1nccn2c([C@@H]3CC[C@@H](O)[C@H]3O)cnc12 [Example 2, (1R,2S,3S)-3-(8-aminoimidazo[1,2-a]pyrazin-3-yl)cyclopentane-1,2-diol] | 1.4 nM

From US8329697B2, “Imidizo[1,2-A]pyrazines useful as AHCY hydrolase inhibitors” (Merck Sharp & Dohme Corp., priority 2008, dated 2012)
